Reference: ChEMBL document CHEMBL3525899, “Identification of the cytochrome P450 and other enzymes involved in the in vitro oxidative metabolism of a novel antidepressant, Lu AA21004” (Drug Metab Dispos, 2012)

Legend:
Cytochrome P450 2C19 = Cytochrome P450 2C19 (Homo sapiens, UniProt P33261); test: Activity of human recombinant CYP2C19 expressed in microsomes isolated from human AHH-1 cells assessed as enzyme-mediated 4-(2-(2,4-dimethylphenylthio)phenyl)piperazin-1-ol formation at 8 to 50 uM after 120 mins by HPLC/MS-MS analysis in presence of NADPH regenerating system with NADP+; type: ADME, cell-free; conditions: 2 h
Cytochrome P450 2E1 = Cytochrome P450 2E1 (Homo sapiens, UniProt P05181); test: (§1) Activity of human recombinant CYP2E1 expressed in microsomes isolated from human AHH-1 cells assessed as enzyme-mediated 1-(2-(2,4-dimethylphenylsulfinyl)phenyl)piperazine formation at 8 to 50 uM after 120 mins by HPLC/MS-MS analysis in presence of NADPH regenerating system with NADP+; type: ADME, cell-free; conditions: 2 h
Liver microsome [1] = test: Intrinsic clearance in pooled human liver microsomes assessed as Vmax(app)/Km(app) for formation of (3-methyl-4-(2-(piperazin-1-yl)phenylthio)phenyl)methanol per mg of protein after 30 mins by Michaelis-Menten plot analysis in presence of NADPH regenerating system with NADP+; type: ADME; conditions: 0.5 h
Liver microsome [2] = test: Drug metabolism in pooled human liver microsomes assessed as formation of 1-(2-(2,4-dimethylphenylsulfinyl)phenyl)piperazine after 30 mins by Michaelis-Menten plot analysis in presence of NADPH regenerating system with NADP+; type: ADME; conditions: 0.5 h, read-out: Km(app)
Liver microsome [3] = test: Drug metabolism in pooled human liver microsomes assessed as formation of 1-(2-(2,4-dimethylphenylsulfinyl)phenyl)piperazine per mg of protein after 30 mins by Michaelis-Menten plot analysis in presence of NADPH regenerating system with NADP+; type: ADME; conditions: 0.5 h
Liver microsome [4] = test: Drug metabolism in phenotyped human liver microsomes assessed as formation of (3-methyl-4-(2-(piperazin-1-yl)phenylthio)phenyl)methanol at 8 to 50 uM after 60 mins by HPLC/MS-MS analysis in presence of NADPH regenerating system with NADP+; type: ADME; conditions: 1 h
Liver microsome [5] = test: Drug metabolism in phenotyped human liver microsomes assessed as formation of 4-(2-(2,4-dimethylphenylthio)phenyl)piperazin-1-ol at 8 to 50 uM after 60 mins by HPLC/MS-MS analysis in presence of NADPH regenerating system with NADP+; type: ADME; conditions: 1 h
[6] = target: T1, Flavin-containing monooxygenase 3 (Homo sapiens, UniProt P31513); test: as §1, with “FMO3” for “CYP2E1”, “baculovirus infected insect BTI-TN-5B1-4” for “human AHH-1”; type: ADME; conditions: 2 h
T1 sequence (P31513 whole entry): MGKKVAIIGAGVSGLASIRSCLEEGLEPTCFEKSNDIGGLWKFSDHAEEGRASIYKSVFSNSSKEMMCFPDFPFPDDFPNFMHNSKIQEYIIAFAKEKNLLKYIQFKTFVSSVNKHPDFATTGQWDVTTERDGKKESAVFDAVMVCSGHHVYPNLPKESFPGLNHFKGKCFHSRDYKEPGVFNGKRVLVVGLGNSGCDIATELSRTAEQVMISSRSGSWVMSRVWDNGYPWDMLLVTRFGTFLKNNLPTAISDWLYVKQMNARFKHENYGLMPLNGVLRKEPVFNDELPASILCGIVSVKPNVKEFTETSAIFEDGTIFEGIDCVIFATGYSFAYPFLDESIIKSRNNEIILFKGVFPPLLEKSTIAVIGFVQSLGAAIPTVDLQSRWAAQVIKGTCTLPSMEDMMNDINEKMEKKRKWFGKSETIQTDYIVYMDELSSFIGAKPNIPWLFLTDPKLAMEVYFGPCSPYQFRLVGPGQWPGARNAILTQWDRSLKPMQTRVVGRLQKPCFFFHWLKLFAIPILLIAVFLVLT

Liver microsome [7] = test: Drug metabolism in pooled human liver microsomes at 100 uM after 30 to 180 mins by HPLC/MS-MS analysis in presence of NADPH regenerating system without NADP+; type: ADME
Cytochrome P450 3A4 = Cytochrome P450 3A4 (Homo sapiens, UniProt P08684); test: Activity of human recombinant CYP3A4 expressed in microsomes isolated from human AHH-1 cells assessed as enzyme-mediated 1-(2-(2,4-dimethylphenylsulfinyl)phenyl)piperazine formation at 8 to 50 uM after 120 mins by HPLC/MS-MS analysis in presence of NADPH regenerating system with NADP+; type: ADME, cell-free; conditions: 2 h
Cytochrome P450 3A4, sequence (P08684 whole entry): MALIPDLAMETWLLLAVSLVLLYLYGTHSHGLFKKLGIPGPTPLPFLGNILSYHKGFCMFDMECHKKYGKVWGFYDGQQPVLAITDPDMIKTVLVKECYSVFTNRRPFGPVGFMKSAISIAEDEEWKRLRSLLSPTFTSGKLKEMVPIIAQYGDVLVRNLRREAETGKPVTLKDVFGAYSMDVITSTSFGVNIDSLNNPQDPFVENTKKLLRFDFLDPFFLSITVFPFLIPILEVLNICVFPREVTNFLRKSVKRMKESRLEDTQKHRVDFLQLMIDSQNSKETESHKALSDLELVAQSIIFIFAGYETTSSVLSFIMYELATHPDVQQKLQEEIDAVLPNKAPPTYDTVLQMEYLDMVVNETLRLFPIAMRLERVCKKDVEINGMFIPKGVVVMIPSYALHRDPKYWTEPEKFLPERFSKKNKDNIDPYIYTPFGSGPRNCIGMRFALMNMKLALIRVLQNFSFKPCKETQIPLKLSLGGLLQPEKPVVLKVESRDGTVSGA

Cytochrome P450 2C19, sequence (P33261 whole entry): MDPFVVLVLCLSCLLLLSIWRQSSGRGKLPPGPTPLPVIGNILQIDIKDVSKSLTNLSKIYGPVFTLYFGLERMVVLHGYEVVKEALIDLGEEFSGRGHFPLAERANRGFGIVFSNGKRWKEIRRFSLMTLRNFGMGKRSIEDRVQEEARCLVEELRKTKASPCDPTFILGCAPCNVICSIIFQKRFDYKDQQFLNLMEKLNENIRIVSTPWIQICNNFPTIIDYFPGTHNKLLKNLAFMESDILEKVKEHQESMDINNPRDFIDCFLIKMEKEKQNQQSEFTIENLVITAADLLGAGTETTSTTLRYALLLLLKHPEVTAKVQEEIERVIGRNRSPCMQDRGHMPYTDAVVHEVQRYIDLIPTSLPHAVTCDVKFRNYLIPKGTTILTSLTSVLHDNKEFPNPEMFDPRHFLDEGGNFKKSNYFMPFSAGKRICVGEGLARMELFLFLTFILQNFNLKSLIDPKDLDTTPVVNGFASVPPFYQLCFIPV
Cytochrome P450 2E1, sequence (P05181 whole entry): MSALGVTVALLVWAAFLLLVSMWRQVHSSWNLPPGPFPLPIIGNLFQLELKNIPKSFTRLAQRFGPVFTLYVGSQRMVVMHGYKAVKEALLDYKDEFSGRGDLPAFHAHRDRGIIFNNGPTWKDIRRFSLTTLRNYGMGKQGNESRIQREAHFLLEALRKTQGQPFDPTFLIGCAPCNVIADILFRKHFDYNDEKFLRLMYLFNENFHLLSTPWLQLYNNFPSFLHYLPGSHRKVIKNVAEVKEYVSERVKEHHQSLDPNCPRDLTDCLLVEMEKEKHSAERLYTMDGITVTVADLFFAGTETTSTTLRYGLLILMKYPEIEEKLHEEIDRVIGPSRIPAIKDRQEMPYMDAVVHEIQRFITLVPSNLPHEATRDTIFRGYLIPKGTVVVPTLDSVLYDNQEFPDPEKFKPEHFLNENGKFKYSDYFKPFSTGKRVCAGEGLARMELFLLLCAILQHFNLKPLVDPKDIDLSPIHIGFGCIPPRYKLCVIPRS

- Drug metabolism (Cytochrome P450 2C19): metabolite_detected
- Drug metabolism (Cytochrome P450 2E1): metabolite_not_detected
- Vmax/Km (Liver microsome [1]): 1.13 µL/min
- Km (Liver microsome [2]): ≥ 208 µM
- Vmax(app) (Liver microsome [3]): >= 227 pmol/min
- Drug metabolism (Liver microsome [4]): metabolite_detected
- Drug metabolism (Liver microsome [5]): metabolite_detected
- Drug metabolism [6]: metabolite_not_detected
- Drug metabolism (Liver microsome [7]): metabolite_not_detected
- Drug metabolism (Cytochrome P450 3A4): metabolite_detected
SMILES: Br.Cc1ccc(Sc2ccccc2N2CCNCC2)c(C)c1 [VORTIOXETINE HYDROBROMIDE]
